Each structure is given as a SMILES string. “And” between values parts separate entries of the source, which are not always exact repeats. Identical values can stand only once. The source made the active and inactive calls. The rule behind the calls is not given here.

By inhibition is commonly meant the percentage by which the read-out fell short of the control. A word on the IC50: it is the concentration that inhibits the measured activity by half.

The target in the first experiment is T1, Fructose-1,6-bisphosphatase 1 (Sus scrofa) (UniProt P00636).
T1 sequence (whole entry): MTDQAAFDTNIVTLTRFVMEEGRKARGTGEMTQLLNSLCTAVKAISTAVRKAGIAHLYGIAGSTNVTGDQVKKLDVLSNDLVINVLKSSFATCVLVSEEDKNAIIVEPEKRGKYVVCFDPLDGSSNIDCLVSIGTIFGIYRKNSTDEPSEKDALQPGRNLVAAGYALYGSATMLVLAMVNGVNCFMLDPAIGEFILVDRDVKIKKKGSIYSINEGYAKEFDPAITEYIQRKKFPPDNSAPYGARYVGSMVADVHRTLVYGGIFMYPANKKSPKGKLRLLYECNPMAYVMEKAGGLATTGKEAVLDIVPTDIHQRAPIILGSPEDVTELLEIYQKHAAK
The experiment is described as follows: Inhibition of pig FBPase expressed in Escherichia coli EK1601 up to 300 uM by spectrophotometry.
Conditions: not given
Regarding `O=[N+]([O-])c1cccc(Nc2nc(-c3ccccc3)cs2)c1`, the inhibition entry is “inactive”.

The target in a further experiment is T1, Fructose-1,6-bisphosphatase 1 (Sus scrofa). The experiment is described as follows: Inhibition of pig FBPase expressed in Escherichia coli EK1601 at 100 uM by spectrophotometry.
Conditions: not given
In turn, `O=[N+]([O-])c1ccc(-c2csc(Nc3ccc(O)cc3)n2)cc1` showed an inhibition of 87%.

For another experiment, the target named is T2, Fructose-1,6-bisphosphatase 1 (Sus scrofa, UniProt P00636).
T2 sequence (P00636 whole entry): T1 sequence (whole entry)
The experiment can be described thus: Inhibition of pig FBPase expressed in Escherichia coli EK1601 by spectrophotometry.
Conditions: not given
As for `O=[N+]([O-])c1ccc(-c2csc(Nc3ccccc3)n2)cc1`, the IC50 entry was “Not Active”.

For `O=[N+]([O-])c1ccc(Nc2nc(-c3ccccc3)cs2)cc1`, the IC50 result is given as “Not Active”.

Staying with this experiment, now noted: read-out: IC50.
For the compound `Oc1ccc(Nc2nc(-c3ccc(O)cc3)cs2)cc1`, the IC50 came to 48 µM. Same read-out and setting: in the case of `NS(=O)(=O)c1cccc(Nc2nc(-c3ccc(O)cc3)cs2)c1` it was 50 µM.

For `Nc1ncnc2c1ncn2[C@@H]1O[C@H](COP(=O)(O)O)[C@@H](O)[C@H]1O` [ADENOSINE PHOSPHATE], the IC50 is 1.3 µM. As to `NS(=O)(=O)c1ccc(Nc2nc(-c3ccc(O)cc3)cs2)cc1`, the IC50 was 32 µM and 31.6 µM. The same measure, in the same setting: under `Oc1cccc(Nc2nc(-c3ccccc3)cs2)c1` stands 35 µM; under `O=C(O)c1ccc(S(=O)(=O)c2ccc(C(=O)O)cc2)cc1`, 750 µM.

Consider `O=C(O)c1cccc(Nc2nc(-c3ccccc3)cs2)c1`, for which the IC50 was 571 µM. The same measure, in the same setting: in the case of `Oc1ccc(-c2csc(Nc3ccccc3O)n2)cc1` it was 15 µM; in that of `NS(=O)(=O)c1cccc(Nc2nc(-c3ccccc3)cs2)c1`, 104 µM; in that of `Nc1nc(-c2ccccc2)cs1`, 1390 µM.

Take `Oc1cccc(Nc2nc(-c3ccc(O)cc3O)cs2)c1`: the IC50 worked out at 6 µM.

As to `Nc1nc(-c2ccc(O)cc2O)cs1`, the IC50 was 93 µM. For the compound `c1ccc(Nc2nc(-c3ccccc3)cs2)cc1`, the IC50 stood at 2500 µM. The same measure, in the same setting: in the case of `Oc1ccc(-c2csc(Nc3ccccc3)n2)cc1` it was 318 µM; in that of `CCc1c(C)sc(NC(=S)NCc2ccccn2)c1C(=O)OC`, 20 µM; in that of `Oc1ccccc1Nc1nc(-c2ccccc2)cs1`, 270 µM. On the same count and under the same terms, in the case of `Oc1ccc(Nc2nc(-c3ccc(O)cc3O)cs2)cc1` it was 11 µM; in that of `Oc1ccc(-c2csc(Nc3ccccc3O)n2)c(O)c1`, 20 µM. On to `Oc1ccccc1-c1csc(Nc2ccccc2)n1`, for which the IC50 is 119 µM. Turning to `Oc1ccc(Nc2nc(-c3ccccc3)cs2)cc1`, the IC50 was 124 µM. Still for that read-out and setting: under `O=[N+]([O-])c1cccc(Nc2nc(-c3ccc(O)cc3)cs2)c1` stands 48 µM; under `Nc1nc(-c2ccc(O)cc2)cs1`, 1.1 µM; under `O=C(O)c1cccc(Nc2nc(-c3ccc(O)cc3)cs2)c1`, 48 µM. Same read-out and setting: in the case of `Cc1cc(C)n(CC(O)COc2ccc3ccccc3c2)n1` (stereo not drawn) it was 3000 µM; in that of `O=[N+]([O-])c1ccc(Nc2nc(-c3ccc(O)cc3)cs2)cc1`, 246 µM.

Consider `NS(=O)(=O)c1ccc(Nc2nc(-c3ccccc3)cs2)cc1`, for which the IC50 was 145 µM. Same read-out and setting: under `Oc1ccc(-c2csc(Nc3cccc(O)c3)n2)cc1` stands 13 µM. On the same count and under the same terms, in the case of `NS(=O)(=O)c1ccc(Nc2nc(-c3ccc(O)cc3O)cs2)cc1` it was 55 µM; in that of `Oc1ccc(-c2csc(Nc3ccccc3)n2)c(O)c1`, 343 µM.

For the origin of these results see ChEMBL document CHEMBL1158422, “A library of novel allosteric inhibitors against fructose 1,6-bisphosphatase” (Bioorg Med Chem, 2009).
